Assay: gradient 5% acetonitrile 3 min, to 50% in 2 min, to 85% in 15 min, held 3 min, 100 µL/min
Conditions: column: Zorbax Extend-C18 2.1 x 50 mm; eluents: water / acetonitrile, 0.1% formic acid
Summary of the method: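 Using water and acetonitrile that each contained 0.1% formic acid, mixtures of ~100 pure standards were separated at 100 μL/min on a Zorbax Extend-C18 column (2.1 × 50 mm, 1.8 μm). The HPLC fed a quadrupole time-of-flight mass spectrometer working in positive and negative ionization mode, with dead and dwell volumes of 40 μL and 900 μL. Data were acquired over 3 months. Retention time was read from computationally picked adduct peaks after manual inspection of each.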

Q: Which RP-LC retention time does the source give for `CC(NC(=O)Cn1cc(C(=O)C2CC2)c2ccccc21)c1ccc2c(c1)OCCCO2` (configuration not stated) here?
A: The RP-LC retention time was 866 s.

Q: Which RP-LC retention time does the source give for `O=C(NCc1cccs1)C1CCCN(c2nc3ccsc3c(=O)n2Cc2ccc(F)cc2)C1` (configuration not stated) here?
A: The RP-LC retention time was 899 s.

Q: With `Cc1[nH]c(-c2ccccc2)cc1C(=O)NC1CCCC1` as the molecule, how does the RP-LC retention time read?
A: Its RP-LC retention time is 845 s.

Q: Which RP-LC retention time does the source give for `COc1ccc(-c2nc(C)cc(C)c2CNC(=O)CC2CCCC2)cc1` here?
A: The RP-LC retention time was 639 s.

Q: Which RP-LC retention time does the source give for `Cc1ccc(/C=C/c2nc(-c3ccc4oc(C)nc4c3)no2)o1` here?
A: The RP-LC retention time was 1130 s.

Q: Which RP-LC retention time does the source give for `COc1cccc(CNC(=O)c2nsc(C(=O)N3CCN(c4ccccn4)CC3)c2N)c1` here?
A: Its RP-LC retention time is 660 s.

Q: For `CC(=O)c1cccc(NC(=O)Cn2c(=O)n(-c3ccc(C)cc3)c(=O)c3c2cc(C)n3C)c1`, which RP-LC retention time is on record?
A: Its RP-LC retention time is 819 s.

Q: With `Cc1ccc(CN2C(=O)N(c3cccc(F)c3)c3ncccc3S2(=O)=O)cc1` as the molecule, how does the RP-LC retention time read?
A: Its RP-LC retention time is 1100 s.

Q: Which RP-LC retention time does the source give for `Cc1ccc(-n2c(-c3ccc(Cl)cc3)cn3c4c(=O)n(C)c(=O)n(C)c4nc23)cc1N` here?
A: The RP-LC retention time was 870 s.

Q: Which RP-LC retention time does the source give for `O=C(NC1CCCCC1)c1cc2ccccc2cc1O` here?
A: Its RP-LC retention time is 1180 s.

Q: With `O=C(c1csc(-c2ccc(N3CCCCC3)nc2)n1)N1CCN(c2ccccn2)CC1` as the molecule, how does the RP-LC retention time read?
A: Its RP-LC retention time is 600 s.

Q: For `COc1cc(C(=O)N2CCC3(CC2)NC(=O)c2cc(C)ccc2N3C)cc(OC)c1OC`, which RP-LC retention time is on record?
A: The RP-LC retention time was 730 s.

Q: With `CCC(=O)NCc1nc2c(n1CC)CN(C(=O)c1ccc(Br)cc1)CC2` as the molecule, how does the RP-LC retention time read?
A: The RP-LC retention time was 606 s.

Q: With `CCOc1cc2c(cc1OCC)C1C(C(=O)NCCCOC)c3ccccc3C(=O)N1CC2` (configuration not stated) as the molecule, how does the RP-LC retention time read?
A: The RP-LC retention time was 744 s.

Q: With `O=C(Nc1cccc(OCc2nnc(-c3ccccc3)o2)c1)c1cncc(Br)c1` as the molecule, how does the RP-LC retention time read?
A: The RP-LC retention time was 912 s.

Q: With `CCOC(=O)N1CCN(C(=O)CSc2nnc3n2CCN3c2ccc(OC)cc2)CC1` as the molecule, how does the RP-LC retention time read?
A: Its RP-LC retention time is 623 s.

Q: For `Cc1ccc(NC(=O)Nc2cnn(-c3ncc(N4CCCC4)cn3)c2)c(Cl)c1`, which RP-LC retention time is on record?
A: Its RP-LC retention time is 844 s.

Q: With `COc1ccc(NC(=O)c2cn(-c3ccc(C#N)cc3)cn2)cc1OC` as the molecule, how does the RP-LC retention time read?
A: The RP-LC retention time was 683 s.

Q: Which RP-LC retention time does the source give for `NS(=O)(=O)c1ccc(CCNCc2ccc(-c3cc(Cl)ccc3Cl)o2)cc1` here?
A: The RP-LC retention time was 712 s.

Q: With `CCn1nccc1C(=O)N1CCCC1c1ccc(F)cc1` (configuration not stated) as the molecule, how does the RP-LC retention time read?
A: The RP-LC retention time was 785 s.

Q: With `CCn1ccc2cc(S(=O)(=O)N3CCCC(C(=O)NCCc4ccco4)C3)ccc21` (configuration not stated) as the molecule, how does the RP-LC retention time read?
A: Its RP-LC retention time is 925 s.

Q: With `O=C(NCc1ccc(F)cc1)c1cccc(-c2ccc(N3CCCC3)nc2)c1` as the molecule, how does the RP-LC retention time read?
A: The RP-LC retention time was 680 s.

Q: For `Cc1ccc(Nc2cc(C)nc(N3CCN(C(=O)Nc4ccccc4)CC3)n2)cc1`, which RP-LC retention time is on record?
A: The RP-LC retention time was 738 s.

Q: With `Cc1cnc(CCC2CCCN2C(=O)c2ccc(Cn3cncn3)o2)n1C(C)C` (configuration not stated) as the molecule, how does the RP-LC retention time read?
A: Its RP-LC retention time is 626 s.

Q: Which RP-LC retention time does the source give for `CCOc1ccc(NC(=O)N2CCN(c3cnn4c(C)nnc4c3)CC2)cc1` here?
A: The RP-LC retention time was 648 s.

Q: For `CN(C)[C@@H]1CN(C(=O)c2ccc(Br)cc2F)C[C@H]1CO`, which RP-LC retention time is on record?
A: Its RP-LC retention time is 581 s.

Q: For `COCCNC(=O)c1cc2c(=O)n(Cc3ccccc3)ccc2s1`, which RP-LC retention time is on record?
A: Its RP-LC retention time is 719 s.

Q: Which RP-LC retention time does the source give for `Cc1cc(C(=O)NCC(C)C)c2cccc(Cl)c2n1` here?
A: The RP-LC retention time was 770 s.

Q: For `CCn1nc(C)n2cc(S(=O)(=O)NCc3cccc(C)c3)cc2c1=O`, which RP-LC retention time is on record?
A: Its RP-LC retention time is 882 s.

Q: With `Cc1cc(C)c(CNC(=O)C2CCCN(c3cnc4nccnc4c3)C2)c(C)c1` (configuration not stated) as the molecule, how does the RP-LC retention time read?
A: The RP-LC retention time was 819 s.

Q: For `O=C(NC1CCCC1)C1CCCN(S(=O)(=O)c2c[nH]c(C(=O)N3CCCCCC3)c2)C1` (configuration not stated), which RP-LC retention time is on record?
A: The RP-LC retention time was 784 s.

Q: For `CN1CCCN(C(=O)CCc2ccc3c(ccn3C)c2)CC1`, which RP-LC retention time is on record?
A: The RP-LC retention time was 605 s.

Q: For `CCc1cc(=O)n(CC(=O)Nc2ccc(F)c(Cl)c2)c(N2CCOCC2)n1`, which RP-LC retention time is on record?
A: Its RP-LC retention time is 828 s.

Q: For `COc1cccc(/C=C/c2nc(C#N)c(NCCN(C)C)o2)c1`, which RP-LC retention time is on record?
A: Its RP-LC retention time is 654 s.

Q: Which RP-LC retention time does the source give for `Cc1ccc(C(=O)NCC(=O)Nc2nc3ccccc3[nH]2)c(C)c1` here?
A: The RP-LC retention time was 639 s.

Q: For `Cc1ccc(NC(=O)N(C)CC2CCOCC2)cc1F`, which RP-LC retention time is on record?
A: Its RP-LC retention time is 748 s.

Q: For `CN(C)C(CNC(=O)Nc1cccs1)c1cccs1` (configuration not stated), which RP-LC retention time is on record?
A: Its RP-LC retention time is 556 s.
